Data taken from BigSolDB 2.1.

COc1ccccc1OCCNCC(O)COc1cccc2[nH]c3ccccc3c12 (stereo not drawn)
solubility (mole fraction)
Conditions	278.15 K	283.15 K	288.15 K	293.15 K	298.15 K	303.15 K	308.15 K	313.15 K
in THF	0.00043	0.00061	0.00085	0.00118	0.00167	0.00227	0.00302	0.004
in acetone	0.00064	0.00088	0.00117	0.00154	0.0021	0.00268	0.00354	0.0046
in ethanol	0.00062	0.00085	0.00112	0.00143	0.00185	0.00246	0.00306	0.00389
in ethyl acetate	0.00063	0.00086	0.00146	0.00187	0.0024	0.00294	0.00371	0.00424
in methanol	0.00063	0.00087	0.00114	0.0015	0.00201	0.00256	0.00329	0.00419
in water	0.0196	0.0232	0.0278	0.033	0.0398	0.0468	0.0552	0.0641
